Measurements reported in patent US11759444B2, “Methods for cancer and immunotherapy using prodrugs of glutamine analogs” (The Johns Hopkins University, priority 2015, dated 2023).
Entries after “also recorded” stand apart in the source; their conditions may differ. Read-outs that look alike come from different tables or passages of the source. Blank lines part the entries; values can stand above or below the compound they belong to.

Tests used:
[1] = In vitro plasma stability, pig plasma; format: in vitro ADME
[2] = In vitro plasma stability, dog plasma; format: in vitro ADME
[3] = Plasma and CSF pharmacokinetics in monkeys, i.v.; format: in vivo, pigtail macaques; details: monkey
Procedure: All monkey studies were conducted according to protocol (#PR15M298) approved by the Animal Care and Use Committee at Johns Hopkins University. Two female pigtail monkeys (approximately 3.5 kg, non-drug naive) were adjacently housed in stainless steel cages on a social interaction rack (contains 4 cages, each 32.5″ wide×28″ deep×32″ high) maintaining temperature of 64-84° F., humidity of 30-70% with alternating 14-10 hour light/dark cycle as per the USDA Animal Welfare Act (9 CFR, Parts 1, 2, and 3). Food was provided daily in amounts appropriate for the size and age of the animals and RO purified water provided ad libitum through an in-cage lixit valve. Food enrichment was provided Monday through Friday. […]
We have previously published a highly sensitive method for analysis of DON in biological matrices (Alt, et al., 2015). […] The mean predicted […] for back calculated concentrations of the standards and QC's for all analytes were within the range of 85 to 115%, except for the lowest concentration which was within the range of 80 to 120% with an overall accuracy and precision of 6.7% and 6.6% respectively.
Mean concentration-time data was used for pharmacokinetic analysis. […] Area under the curve (AUC) was calculated by log-linear trapezoidal rule to the end of sample collection (AUClast). […]

[4] = Plasma and CSF pharmacokinetics in swine, i.v. infusion; format: in vivo, Göttingen×Yucutan miniature swine; details: 60 min post-administration
[5] = In vitro plasma stability, mouse plasma
[6] = In vitro plasma stability, human plasma
[7] = In vitro plasma stability, monkey plasma
EL4 lymphoma = test: EL4 mouse lymphoma model; format: in vivo; details: monotherapy
B16 melanoma = B16 melanoma mouse model; format: in vivo; details: monotherapy
CT26 cells = test: CT26 colon cancer tumor model; format: in vivo, BALB/c mice; details: for CT26 anti-tumor response in combination with anti-PD1: combination with anti-PD-1
Procedure: (§1) Tumor growth and survival experiments: Tumor injections were administered in the right flank. For the MC38 and MC38OVA models, C57BL/6 WT mice were injected with 5×10^5 MC38 or MC38OVA cells (s.c.) cultured in DMEM-based media. For the CT26 model, BALB/c mice were injected with 5×10^5 CT26 cells (s.c.) cultured in RPMI-based media. Compound 25 was dissolved in 2.5% ethanol in PBS (v/v) which was administered for all vehicle-treated control experiments. For MC38 and MC38OVA experiments, mice were treated with Compound 25 or vehicle by daily gavage with 1 mg/kg/day in 100 uL for days 10-14 and with 0.3 mg/kg/day for day 15-24. For CT26 experiments, mice were treated with compound 25 or vehicle by daily gavage with 1 mg/kg/day in 100 uL for days 7-11 and with 0.3 mg/kg/day for day 12-21.

MC38 cells [8] = test: MC38 colon cancer tumor model; format: in vivo, C57BL/6 mice; details: for MC38 tumor response, monotherapy (words): 1 mg/kg followed by 0.3 mg/kg, 14 days, wild type mice; for rejection of tumor re-challenge by mice cured with monotherapy: MC38 rechallenge on opposite flank; for MC38 response in combination with anti-PD1: combination with anti-PD-1
Procedure: as §1

EO771 cells = test: EO771 breast cancer model; format: in vivo, C57BL/6 mice
Procedure: Mouse: C57BL/6 (both male and female mice, 6-8 weeks of age) were purchased from Jackson Laboratories. The studies were conducted under a protocol approved by the Johns Hopkins Animal Care and Use Committee.
Cell Line: EO771 breast cancer cell lines were purchased from CH3 BioSystems.
Treatment with immunotherapy alone or combined immunotherapy with compound 25: On days 9, 12, and 15, mice were injected with or without 100 μg anti-PD1 alone or 100 μg anti-PD1 in combination with 100 μg anti-CTLA4, followed by treatment with or without compound 25. Each individual mouse tumor growth and survival curves were recorded.

3LL cells = test: 3LL tumor model; format: in vivo, C57BL/6J mice
Text: 5×10^6 3 LL cells were implanted subcutaneously into the right flank in C57BL/6J male mice.

B16-OVA melanoma cells = test: B16-OVA melanoma model with adoptive cellular therapy; format: in vivo, C57BL/6 mice; details: 1 mg/kg/day days 7-9 before transfer on day 10
Procedure: Adoptive Cellular Therapy: OVA-expressing B16 melanoma model, C57BL/6 WT mice received a s.c. injection of 2×10^5 B16-OVA melanoma cells cultured under OVA selection media containing 400 μg/ml G418 (Life technologies). Mice were treated with compound 25 or vehicle by daily gavage with 1 mg/kg/day in 100 uL for days 7-9 post tumor inoculation. Ten days after tumor injection, mice received an adoptive transfer of 1.5×10^6 activated OT1 cells, which had been stimulated in vitro with […] peptide for 48 h, expanded in IL-2 (1 ng/mL) for 24 h and isolated with Ficol gradient centrifugation. Mice were randomized based on tumor size before transfer of activated OT1 cells for adoptive transfer experiments. Tumor burden was assessed every 2-4 days by measuring length and width of tumor. Tumor volume was calculated using the formula V=(L×W×W)/2, where V is tumor volume, W is tumor width, and L is tumor length. Mice were sacrificed when tumor reached 2 cm in any dimension, became ulcerate or necrotic, or caused functional deficits.

[9] = microsomes
[10] = microsomes; remark: listed apart in the source
MC38 cells [11] = test: MC38 colon cancer tumor model; format: in vivo, C57BL/6 mice; details: growth rate recovered after several days
4T1 tumor cells = test: 4T1 breast cancer model; details: for 4T1 tumor growth and survival, monotherapy (words): 1 mg/kg daily
[12] = Table 2, prodrug 10 μM, 60 min incubation at 37° C., values read as % prodrug remaining
[13] = 1 mg/kg daily day 7 to 16, tumors evaluated day 21

stability in pig plasma [1]: stable | stability in dog plasma [2]: stable | CSF:plasma ratio of DON [3]: enhanced CSF:plasma ratio of DON | metabolism in mouse plasma [5]: rapidly metabolized | PLASMA STABILITY Mouse [5, 12]: 0% | metabolism in mouse plasma ([5]; listed as 5c): completely converted to DON | stability in human plasma [6]: stable | PLASMA STABILITY Human [6, 12]: 91% | stability in monkey plasma [7]: stable | PLASMA STABILITY Monkey [7, 12]: 61%
Compound: CC(C)OC(=O)[C@H](CCC(=O)C=[N+]=[N-])NC(=O)O[C@H](C)OC(=O)C(C)(C)C (single isomer, unassigned) [Compound 14b]
CSF delivery of DON [4]: substantially higher amounts of DON; also recorded: enhanced CSF delivery of DON | CSF-to-plasma ratio of DON [4]: increased CSF-to-plasma ratios; also recorded: enhanced CSF:plasma ratio of DON | stability in human plasma ([6]; listed as 5c): stable; also recorded: excellent stability | stability in monkey plasma ([7]; listed as 5c): stable; also recorded: excellent stability

Compound: CCOC(=O)[C@H](CCC(=O)C=[N+]=[N-])NC(=O)[C@@H](N)CC(C)C [Compound 25]
lymphoma tumor growth (EL4 lymphoma): marked decrease in tumor growth | melanoma tumor growth (B16 melanoma): marked decrease in tumor growth | CT26 tumor model, comparison with CB-839 (CT26 cells; 25 short daily course vs CB-839 continuous BID dosing): superior to CB-839 | CT26 anti-tumor response in combination with anti-PD1 (CT26 cells): unexpectedly enhances the response to anti-PD1 | CT26 anti-tumor response in combination with anti-PD1 (CT26 cells; listed as compound 25): significant anti-tumor responses | CT26 tumor response and survival, monotherapy (words) (CT26 cells): robust response and improved overall survival | CT26 tumor response and survival, monotherapy (words) (CT26 cells; listed as compound 25): marked decrease in tumor growth | MC38 tumor response, monotherapy (words) (MC38 cells [8]): complete and durable response | MC38 tumor response, monotherapy (words) (MC38 cells [8]; listed as compound 25): marked decrease in tumor growth; also recorded: durable cures; also recorded: significant control of the tumor including complete regression in a proportion of the mice | rejection of tumor re-challenge by mice cured with monotherapy (MC38 cells [8]): immunologically reject tumors upon re-challenge | rejection of tumor re-challenge by mice cured with monotherapy (MC38 cells [8]; listed as compound 25): More than three-quarters | MC38 response in combination with anti-PD1 (MC38 cells [8]): conditions tumors to be eliminated by anti-PD1 therapy; also recorded: rescues anti-PD1 failures | MC38 response in combination with anti-PD1 (MC38 cells [8]; listed as compound 25): unexpected increase in both tumor regression and complete responses | EO771 tumor growth and survival, single agent (EO771 cells; agent alone): delayed tumor growth and increased survival | EO771 tumor growth and survival, combination with anti-PD-1 (EO771 cells; compound 25 + anti-PD-1): surprising increase in inhibition of tumor growth and survival | 3LL tumor growth (3LL cells; 1 mg/kg from day 7, then 0.3 mg/kg): reduced tumor growth | ratio of CD8 cells to MDSCs+ and TANs, blood and TIL (3LL cells; 3LL tumor-bearing mice): increased ratio of CD8 cells to MDSCs+ and TANs | tumor control and survival with adoptive transfer of activated OT1 T cells (B16-OVA melanoma cells): unexpected improvement in tumor control and survival | liver microsomal stability, human [9]: moderate-high stability | liver microsomal stability, pig [10]: moderate-high stability | MC38 tumor growth in RAG2−/− mice (MC38 cells [11]): some initial effect on tumor growth | 4T1 tumor growth and survival, monotherapy (words) (4T1 tumor cells): robust response and improved overall survival | CD11b+ cells and G-MDSCs in circulating blood (4T1 tumor cells; 1 mg/kg daily day 7 to 16, flow cytometry days 6, 9, 17): reduced CD11b+ cells and G-MDSCs | TNF alpha in tumor associated macrophages (4T1 tumor cells; [13]): increased TNF alpha | fibrocytes in tumor (4T1 tumor cells; [13]): reduced fibrocytes | 4T1-Luc tumor luminescence, comparison with anti-PD1 (4T1 tumor cells; 1 mg/kg daily from day 7, IVIS imaging day 13): inhibited mammary carcinoma cell proliferation better than anti-PD1 | 4T1 tumor growth and survival, monotherapy (words) (4T1 tumor cells; listed as compound 25): inhibited the growth of mammary carcinoma tumor cells; also recorded: modest decrease in tumor growth | spontaneous lung metastasis (4T1 tumor cells; 1 mg/kg from day 7, then 0.3 mg/kg, lungs harvested day 30): significantly reduces lung metastasis | 4T1 breast cancer model, comparison with CB-839 (4T1 tumor cells; 25 daily days 7-22 (1.0 mg/kg/d) vs CB-839 BID days 1-29): superior to CB-839 | 4T1 tumor growth and survival, combination with anti-PD1 and anti-CTLA4 (4T1 tumor cells; compound 25 + anti-PD1 + anti-CTLA-4): substantial decrease of tumor growth and increase in survival time
